Experimental data taken from patent US10556905B2, “Processes for preparing a diazabicyclooctane compound” (priority 2012, dated 2020).
Where two headings read alike, the source gives them in different places.

Key:
AmpC = target: T1, AmpC (Pseudomonas aeruginosa, UniProt P24735); experiment: biochemical
T1 construct: AmpC, TEM-1, KPC-2 or OXA-2 domain excluding signal peptide was amplified with PCR; made in house; host or cells: Escherichia coli BL21 (DE3), pET-28b(+)

TEM-1 = target: T2, TEM-1 (Escherichia coli, UniProt P62593); experiment: β-Lactamase inhibitory activity (nitrocefin hydrolysis), TEM-1; format: biochemical; conditions: TEM-1 0.1 nM, 100 μM nitrocefin, pre-incubation 30° C. 10 minutes
T2 construct: AmpC, TEM-1, KPC-2 or OXA-2 domain excluding signal peptide was amplified with PCR; made in house; host or cells: Escherichia coli BL21 (DE3), pET-28b(+)
Method: Using Pseudomonas aeruginosa ATCCBAA-47 genome, plasmid pBR322, Klebsiella pneumoniae ATCCBAA-1705, and P. aeruginosa MSC17696 as a template, each DNA for encoding β-lactamase, AmpC, TEM-1, KPC-2 or OXA-2 domain excluding signal peptide was amplified with PCR. Each of the PCR product was incorporated into pET-28b(+)vector (Merck), introduced into Escherichia coli BL21 (DE3) (Merck), and, under induction of 1 mM isopropyl-β-D-(−)-thiogalactopyranoside (Nacalai Tesque), cultured overnight at 20° C. to express AmpC, TEM-1, KPC-2, and OXA-2. After the bacterial cell was collected, AmpC was purified from the cell extract obtained by ultrasonic treatment, using CM Sepharose Fast Flow (GE Healthcare) and HiTrap Heparin HP (GE Healthcare) at 4° C. TEM-1 was purified with HiTrap SPHP (GE Healthcare), HiTrap Q (GE Healthcare) and Mono Q (GE Healthcare), and KPC-2 was purified with HiTrap SPHP. OXA-2 was purified with HiTrap SPHP and HiTrap Heparin HP.
For the measurement of β-lactamase inhibitory activity, 100 μM (final concentration) nitrocefin (Oxoid) was used as a substrate, and 2.5% DMSO, 10 μg/mL bovine serum derived albumin (Sigma-Aldrich) and 50 mM phosphate buffer at pH 7.0 were used as a reaction solution. […] Nitrocefin was added to each well to be mixed therein, followed by incubation at 30° C. for 20 minutes, and Multiscan Ascent (Thermo Fisher Scientific) was used to measure 492 nm wavelength, thereby measuring nitrocefin hydrolytic activity of β-Lactamase, to determine enzyme inhibitory activity. […] As the inhibitory activity strength, less than 0.1 μM, less than 1 μM, less than 3 μM, less than 10 μM, and 10 μM or more were shown with A, B, C, D, and E respectively.

KPC-2 = target: T3, KPC-2 (Klebsiella pneumoniae, UniProt Q9F663); experiment: β-Lactamase inhibitory activity (nitrocefin hydrolysis), KPC-2; format: biochemical; conditions: KPC-2 0.5 nM, 100 μM nitrocefin, pre-incubation 30° C. 10 minutes
T3 construct: AmpC, TEM-1, KPC-2 or OXA-2 domain excluding signal peptide was amplified with PCR; made in house; host or cells: Escherichia coli BL21 (DE3), pET-28b(+)

OXA-2 = target: T4, OXA-2 (Escherichia coli, UniProt P0A1V9); experiment: biochemical; design: species or system P. aeruginosa
T4 construct: AmpC, TEM-1, KPC-2 or OXA-2 domain excluding signal peptide was amplified with PCR; made in house; host or cells: Escherichia coli BL21 (DE3), pET-28b(+)

[1] = OXA-2 2 nM, 100 μM nitrocefin, pre-incubation 30° C. 10 minutes, read-out: β-Lactamase inhibitory activity OXA-2 (IC50)

T4 sequence (P0A1V9 22-275): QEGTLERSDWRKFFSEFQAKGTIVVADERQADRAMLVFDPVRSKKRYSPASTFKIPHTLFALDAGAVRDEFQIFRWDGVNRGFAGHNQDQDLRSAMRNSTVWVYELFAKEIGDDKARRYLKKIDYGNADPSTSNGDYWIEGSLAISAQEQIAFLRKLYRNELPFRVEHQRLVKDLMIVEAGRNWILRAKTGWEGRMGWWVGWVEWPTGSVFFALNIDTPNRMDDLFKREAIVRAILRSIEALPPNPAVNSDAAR
T1 sequence (P24735 27-397): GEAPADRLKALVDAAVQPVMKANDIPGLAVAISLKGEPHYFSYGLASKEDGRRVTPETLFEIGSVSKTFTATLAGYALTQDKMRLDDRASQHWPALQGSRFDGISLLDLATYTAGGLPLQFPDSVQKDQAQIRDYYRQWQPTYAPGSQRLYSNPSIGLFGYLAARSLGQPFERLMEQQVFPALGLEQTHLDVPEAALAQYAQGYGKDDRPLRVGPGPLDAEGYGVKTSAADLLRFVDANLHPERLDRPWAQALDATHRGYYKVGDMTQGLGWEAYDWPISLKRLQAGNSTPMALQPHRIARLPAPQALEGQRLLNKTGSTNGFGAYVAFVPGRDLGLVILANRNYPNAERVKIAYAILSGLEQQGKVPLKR
T2 sequence (P62593 24-286 limits assumed): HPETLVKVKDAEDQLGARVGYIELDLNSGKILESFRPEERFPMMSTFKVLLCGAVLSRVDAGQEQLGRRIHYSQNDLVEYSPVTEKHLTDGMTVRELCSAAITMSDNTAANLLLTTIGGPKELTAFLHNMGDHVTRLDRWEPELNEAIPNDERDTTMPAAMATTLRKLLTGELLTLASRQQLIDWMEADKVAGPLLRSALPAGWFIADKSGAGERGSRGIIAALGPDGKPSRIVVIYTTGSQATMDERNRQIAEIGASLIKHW
T3 sequence (Q9F663 25-293, looked up): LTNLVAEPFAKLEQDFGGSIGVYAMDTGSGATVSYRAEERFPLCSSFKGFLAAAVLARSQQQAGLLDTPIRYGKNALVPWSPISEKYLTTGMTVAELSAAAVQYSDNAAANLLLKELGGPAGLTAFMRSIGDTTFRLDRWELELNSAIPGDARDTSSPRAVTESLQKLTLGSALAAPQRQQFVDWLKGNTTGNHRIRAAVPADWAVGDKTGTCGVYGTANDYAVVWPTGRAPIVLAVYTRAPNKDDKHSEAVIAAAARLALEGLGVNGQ

SMILES	IC50 (AmpC) [nM]	IC50 (TEM-1) [nM]	IC50 (KPC-2) [nM]	IC50 (OXA-2; [1]) [nM]	IC50 (OXA-2) [nM]
O=C(NO[C@@H]1CCNC1)[C@@H]1CC[C@@H]2CN1C(=O)N2OS(=O)(=O)O [Example 80, (2S,5R)-7-Oxo-N-[(3R)-pyrrolidin-3-yloxy]-6-(sulfooxy)-1,6-diazabicyclo[3.2.1]octane-2-carboxamide]	100 to 1000	< 100	1000 to 3000	100 to 1000	
O=C(NOCCN1CCNC1=O)[C@@H]1CC[C@@H]2CN1C(=O)N2OS(=O)(=O)O [Example 94, Sodium (2S,5R)-7-oxo-N-[2-(2-oxoimidazolidin-1-yl)ethoxy]-6-(sulfooxy)-1,6-diazabicyclo[3.2.1]octane-2-carboxamide]	< 100	< 100	100 to 1000		100 to 1000
CC(=O)NNC(=O)[C@@H]1CC[C@@H]2CN1C(=O)N2OS(=O)(=O)O [Example 21, Sodium (2S,5R)—N′-acetyl-7-oxo-6-(sulfooxy)-1,6-diazabicyclo[3.2.1]octane-2-carbohydrazide]	100 to 1000	< 100	100 to 1000		1000 to 3000
CCC(=O)NNC(=O)[C@@H]1CC[C@@H]2CN1C(=O)N2OS(=O)(=O)O [Example 22, Sodium (2S,5R)-7-oxo-N′-propanoyl-6-(sulfooxy)-1,6-diazabicyclo[3.2.1]octane-2-carbohydrazide]	100 to 1000	< 100	100 to 1000		3000 to 10000
O=C(NOC1CCNCC1)[C@@H]1CC[C@@H]2CN1C(=O)N2OS(=O)(=O)O [Example 84, (2S,5R)-7-Oxo-N-(piperidine-4-yloxy)-6-(sulfooxy)-1,6-diazabicyclo[3.2.1]octane-2-carboxamide]	< 100	< 100	1000 to 3000	100 to 1000	
C[C@H](N)CONC(=O)[C@@H]1CC[C@@H]2CN1C(=O)N2OS(=O)(=O)O [Example 66, (2S,5R)—N-{[(2S)-2-Aminopropyl]oxy}-7-oxo-6-(sulfooxy)-1,6-diazabicyclo[3.2.1]octane-2-carboxamide]	100 to 1000	< 100	1000 to 3000	1000 to 3000	
O=C(NNC(=O)[C@@H]1CC[C@@H]2CN1C(=O)N2OS(=O)(=O)O)[C@@H]1C[C@H](CC2CC2)CCN1 [Example 40, (2S,5R)—N′-{[(2S,4R)-4-Cyclopropylmethylpiperidine-2-yl]carbonyl}-7-oxo-6-(sulfooxy)-1,6-diazabicyclo[3.2.1]octane-2-carbohydrazide]	100 to 1000	< 100	3000 to 10000	1000 to 3000	
CC(C)NCCONC(=O)[C@@H]1CC[C@@H]2CN1C(=O)N2OS(=O)(=O)O [Example 64, (2S,5R)-7-Oxo-N-[2-(propan-2-ylamino)ethoxy]-6-(sulfooxy)-1,6-diazabicyclo[3.2.1]octane-2-carboxamide]	100 to 1000	< 100	100 to 1000	1000 to 3000	
O=C(NNC(=O)[C@@H]1CC[C@@H]2CN1C(=O)N2OS(=O)(=O)O)[C@H]1CCCCN1 [Example 37, (2S,5R)-7-Oxo-N′-[(2R)-piperidine-2-ylcarbonyl]-6-(sulfooxy)-1,6-diazabicyclo[3.2.1]octane-2-carbohydrazide]	1000 to 3000	< 100	1000 to 3000	1000 to 3000	
C[C@@H](N)CONC(=O)[C@@H]1CC[C@@H]2CN1C(=O)N2OS(=O)(=O)O [Example 67, (2S,5R)—N-{[(2R)-2-Aminopropyl]oxy}-7-oxo-6-(sulfooxy)-1,6-diazabicyclo[3.2.1]octane-2-carboxamide]	100 to 1000	< 100	1000 to 3000	1000 to 3000	
O=C(NOC[C@@H]1CCCNC1)[C@@H]1CC[C@@H]2CN1C(=O)N2OS(=O)(=O)O [Example 83, (2S,5R)-7-Oxo-N-[(3R)-piperidine-3-ylmethoxy]-6-(sulfooxy)-1,6-diazabicyclo[3.2.1]octane-2-carboxamide]	< 100	< 100	100 to 1000	100 to 1000	
O=C(NOCCn1cccc1)[C@@H]1CC[C@@H]2CN1C(=O)N2OS(=O)(=O)O [Example 87, Sodium (2S,5R)-7-oxo-N-[2-(1H-pyrrol-1-yl)ethoxy]-6-(sulfooxy)-1,6-diazabicyclo[3.2.1]octane-2-carboxamide]	< 100	< 100	< 100		100 to 1000
CN(C)NC(=O)[C@@H]1CC[C@@H]2CN1C(=O)N2OS(=O)(=O)O (racemic) [Example 20, Sodium (2SR,5RS)—N′,N′-dimethyl-7-oxo-6-(sulfooxy)-1,6-diazabicyclo[3.2.1]octane-2-carbohydrazide]	100 to 1000	100 to 1000	1000 to 3000		3000 to 10000
O=C(NOCCN1CCCNCC1)[C@@H]1CC[C@@H]2CN1C(=O)N2OS(=O)(=O)O [Example 74, (2S,5R)-7-Oxo-N-[2-(1,4-diazepan-1-yl)ethoxy]-6-(sulfooxy)-1,6-diazabicyclo[3.2.1]octane-2-carboxamide]	< 100	< 100	100 to 1000	100 to 1000	
O=C(NOCC(=O)N1CCOCC1)[C@@H]1CC[C@@H]2CN1C(=O)N2OS(=O)(=O)O [Example 91, Sodium (2S,5R)—N-[2-(morpholin-4-yl)-2-oxoethoxy]-7-oxo-6-(sulfooxy)-1,6-diazabicyclo[3.2.1]octane-2-carboxamide]	< 100	< 100	< 100		100 to 1000
C[C@@H](CN)ONC(=O)[C@@H]1CC[C@@H]2CN1C(=O)N2OS(=O)(=O)O [Example 68, (2S,5R)—N-{[(2S)-1-Aminopropan-2-yl]oxy}-7-oxo-6-(sulfooxy)-1,6-diazabicyclo[3.2.1]octane-2-carboxamide]	< 100	< 100	100 to 1000	1000 to 3000	
CCCNCCONC(=O)[C@@H]1CC[C@@H]2CN1C(=O)N2OS(=O)(=O)O [Example 63, (2S,5R)-7-Oxo-N-[2-(propylamino)ethoxy]-6-(sulfooxy)-1,6-diazabicyclo[3.2.1]octane-2-carboxamide]	100 to 1000	< 100	100 to 1000	1000 to 3000	
O=C(NNC(=O)[C@@H]1CC[C@@H]2CN1C(=O)N2OS(=O)(=O)O)C1CCOCC1 [Example 34, Sodium (2S,5R)-7-oxo-6-(sulfooxy)-N′-(tetrahydro-2H-pyran-4-ylcarbonyl)-1,6-diazabicyclo[3.2.1]octane-2-carbohydrazide]	< 100	< 100	100 to 1000		3000 to 10000
O=C(NNC(=O)[C@@H]1CC[C@@H]2CN1C(=O)N2OS(=O)(=O)O)c1ccncc1 [Example 46, Sodium (2S,5R)-7-oxo-N′-(pyridine-4-ylcarbonyl)-6-(sulfooxy)-1,6-diazabicyclo[3.2.1]octane-2-carbohydrazide]	< 100	< 100	100 to 1000		1000 to 3000
O=C(NO[C@H]1CCNC1)[C@@H]1CC[C@@H]2CN1C(=O)N2OS(=O)(=O)O [Example 81, (2S,5R)-7-Oxo-N-[(3S)-pyrrolidin-3-yloxy]-6-(sulfooxy)-1,6-diazabicyclo[3.2.1]octane-2-carboxamide]	< 100	< 100	100 to 1000	1000 to 3000	
Nc1ccc(CC(=O)NNC(=O)[C@@H]2CC[C@@H]3CN2C(=O)N3OS(=O)(=O)O)cc1 [Example 28, (2S,5R)—N′-[(4-Aminophenyl)acetyl]-7-oxo-6-(sulfooxy)-1,6-diazabicyclo[3.2.1]octane-2-carbohydrazide]	< 100	< 100	100 to 1000	3000 to 10000	
NCc1ccc(C(=O)NNC(=O)[C@@H]2CC[C@@H]3CN2C(=O)N3OS(=O)(=O)O)cc1 (racemic) [Example 32, (2SR,5RS)—N′-(4-(Aminomethyl)benzoyl)-7-oxo-6-(sulfooxy)-1,6-diazabicyclo[3.2.1]octane-2-carbohydrazide]	< 100	< 100	100 to 1000	3000 to 10000	
CCNCCONC(=O)[C@@H]1CC[C@@H]2CN1C(=O)N2OS(=O)(=O)O [Example 62, (2S,5R)—N-[2-(Ethylamino)ethoxy]-7-oxo-6-(sulfooxy)-1,6-diazabicyclo[3.2.1]octane-2-carboxamide]	100 to 1000	< 100	100 to 1000	1000 to 3000	
